Data on 22 compounds can be found in patent US20240101576A1, “HETEROCYCLIC INHIBITORS OF EGFR AND/OR HER2, FOR USE IN THE TREATMENT OF CANCER” (Scorpion Therapeutics, Inc., priority 2020, published 2024).

Each structure is given as a SMILES string.

What all share (assay type): cell-based
Assay [1] deals with T1, EGFR exon 20 FQEA Ins A763_V764 (Ba/F3 cells) (Homo sapiens, UniProt P00533, INS763FQEA).
T1 construct: expressed in transfected cells; host or cells: Ba/F3 (murine pro-B cells), retroviral transduction, puromycin selection, IL3-independent pool
T1 sequence (P00533 with tags, fused parts or gaps INS763FQEA): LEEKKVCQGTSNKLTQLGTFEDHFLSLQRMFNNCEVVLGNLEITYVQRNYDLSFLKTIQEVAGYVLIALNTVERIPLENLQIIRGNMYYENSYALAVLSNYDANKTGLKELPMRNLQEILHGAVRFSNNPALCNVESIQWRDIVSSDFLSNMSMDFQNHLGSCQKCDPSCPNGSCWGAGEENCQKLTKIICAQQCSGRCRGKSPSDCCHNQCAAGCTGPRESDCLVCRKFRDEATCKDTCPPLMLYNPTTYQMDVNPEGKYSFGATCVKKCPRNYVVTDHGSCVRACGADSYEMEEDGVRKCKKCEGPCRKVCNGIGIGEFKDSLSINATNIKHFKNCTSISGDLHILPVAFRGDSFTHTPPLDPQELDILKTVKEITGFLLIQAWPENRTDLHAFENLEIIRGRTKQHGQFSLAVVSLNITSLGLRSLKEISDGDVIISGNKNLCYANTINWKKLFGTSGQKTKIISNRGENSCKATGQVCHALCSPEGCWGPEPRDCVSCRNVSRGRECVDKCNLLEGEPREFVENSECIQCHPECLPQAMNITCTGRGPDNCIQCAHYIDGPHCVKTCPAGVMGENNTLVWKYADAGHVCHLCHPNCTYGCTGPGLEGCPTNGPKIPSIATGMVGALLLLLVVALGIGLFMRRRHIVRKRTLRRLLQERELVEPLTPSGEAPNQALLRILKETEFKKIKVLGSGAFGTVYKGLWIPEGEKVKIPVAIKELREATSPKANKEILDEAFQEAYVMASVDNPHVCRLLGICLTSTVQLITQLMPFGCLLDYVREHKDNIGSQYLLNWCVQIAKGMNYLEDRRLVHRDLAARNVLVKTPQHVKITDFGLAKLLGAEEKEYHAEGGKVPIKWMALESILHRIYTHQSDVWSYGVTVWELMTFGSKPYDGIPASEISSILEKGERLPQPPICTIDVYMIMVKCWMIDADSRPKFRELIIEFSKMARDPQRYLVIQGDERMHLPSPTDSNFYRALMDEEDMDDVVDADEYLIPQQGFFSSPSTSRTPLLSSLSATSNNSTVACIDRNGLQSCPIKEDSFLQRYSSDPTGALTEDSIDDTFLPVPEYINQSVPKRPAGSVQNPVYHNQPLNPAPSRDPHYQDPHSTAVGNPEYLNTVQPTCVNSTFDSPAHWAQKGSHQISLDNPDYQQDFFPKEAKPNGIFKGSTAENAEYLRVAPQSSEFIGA
Briefly: Inhibitor activity on EGFR-dependent cell growth (CellTiter-Glo, 72 h), Ba/F3 EGFR exon 20 FQEA Ins. The settings on record: read-out: BaF3 FQEA IC50. In short, it runs like this: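 For each mutant line, growth depends on EGFR signalling in the absence of IL3. Density per well: 400 for L858R, 600 for the C797S double mutant, 800 for exon 19del and FQEA. Ten threefold dilutions were applied for 72 h. %Inhibition = 100×(DMSO − sample)/(DMSO − medium blank).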
For orientation: In ATP-based viability assays light output follows the ATP content of the culture.

In assay [2] the target is T2, EGFR exon 20 ASV Ins V769_D770 (Ba/F3 cells) (Homo sapiens, UniProt P00533, INS769ASV).
T2 construct: expressed in transfected cells; host or cells: Ba/F3 (murine pro-B cells), retroviral transduction, puromycin selection, IL3-independent pool
T2 sequence (P00533 with tags, fused parts or gaps INS769ASV): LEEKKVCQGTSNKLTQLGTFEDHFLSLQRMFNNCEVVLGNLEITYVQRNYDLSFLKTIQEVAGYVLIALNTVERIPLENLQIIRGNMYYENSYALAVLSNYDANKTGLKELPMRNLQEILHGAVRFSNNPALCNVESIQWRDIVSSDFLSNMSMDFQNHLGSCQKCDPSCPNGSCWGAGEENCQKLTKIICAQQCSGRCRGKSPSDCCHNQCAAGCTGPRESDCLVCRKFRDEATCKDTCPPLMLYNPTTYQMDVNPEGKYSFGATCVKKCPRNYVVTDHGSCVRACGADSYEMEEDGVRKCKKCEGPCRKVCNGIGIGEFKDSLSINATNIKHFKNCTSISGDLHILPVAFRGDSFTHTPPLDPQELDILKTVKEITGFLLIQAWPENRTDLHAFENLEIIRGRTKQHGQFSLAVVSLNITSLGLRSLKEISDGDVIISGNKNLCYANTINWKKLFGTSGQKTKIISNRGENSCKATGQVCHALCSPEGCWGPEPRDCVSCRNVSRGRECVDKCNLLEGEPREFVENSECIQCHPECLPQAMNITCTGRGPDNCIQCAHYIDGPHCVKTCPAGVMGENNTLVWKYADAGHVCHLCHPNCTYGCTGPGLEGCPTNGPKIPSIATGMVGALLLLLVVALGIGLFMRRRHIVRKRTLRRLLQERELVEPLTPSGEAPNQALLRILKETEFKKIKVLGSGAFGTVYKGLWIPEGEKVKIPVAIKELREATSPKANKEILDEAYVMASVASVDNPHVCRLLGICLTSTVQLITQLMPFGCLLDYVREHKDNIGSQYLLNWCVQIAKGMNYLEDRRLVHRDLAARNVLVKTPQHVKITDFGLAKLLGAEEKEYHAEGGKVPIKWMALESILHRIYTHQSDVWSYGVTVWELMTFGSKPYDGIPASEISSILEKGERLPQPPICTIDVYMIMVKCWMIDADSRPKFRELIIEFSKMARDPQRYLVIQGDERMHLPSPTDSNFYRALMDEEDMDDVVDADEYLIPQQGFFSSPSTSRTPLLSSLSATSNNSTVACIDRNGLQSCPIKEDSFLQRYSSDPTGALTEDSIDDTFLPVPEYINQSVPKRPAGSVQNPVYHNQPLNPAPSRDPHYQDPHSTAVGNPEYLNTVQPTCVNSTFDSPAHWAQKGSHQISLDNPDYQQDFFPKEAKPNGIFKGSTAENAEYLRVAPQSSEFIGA
The experiment in a line: Inhibitor activity on EGFR-dependent cell growth (CellTiter-Glo, 72 h), Ba/F3 EGFR exon 20 ASV Ins. To be noted: read-out: BaF3 ASV IC50. In short, it runs like this:
(§1)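 IC50s derive from a sigmoidal dose–response fit of CellTiter-Glo signal. The signal was normalised between […]-treated cells and cell-free medium. Ba/F3 mutant-EGFR cells, seeded at 400–800/well depending on the line, had 72 h of exposure to a 10-point, 3-fold compound series.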

Another assay addresses T3, EGFR WT (Ba/F3 cells) (Homo sapiens, UniProt P00533).
T3 construct: expressed in transfected cells; host or cells: Ba/F3 (murine pro-B cells), retroviral transduction, puromycin selection, maintained with EGF
The experiment in a line: Inhibitor activity on EGFR-dependent cell growth (CellTiter-Glo, 72 h), Ba/F3 EGFR WT. The settings on record: read-out: BaF3 WT IC50. An outline of the steps:
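This growth assay used Ba/F3 cells that depend on wild-type EGFR and are kept in EGF without IL3. Compounds were made up as 10 mM DMSO stocks and diluted 3-fold over 10 points. 120 nL went onto 600 cells/well. After 72 hours, 40 μL CellTiter-Glo was added and luminescence read on EnVision after 30 min.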

Assay [3] addresses T4, EGFR exon 20 SVD Ins D770_N771 (Ba/F3 cells) (Homo sapiens, UniProt P00533, INS770SVD).
T4 construct: expressed in transfected cells; host or cells: Ba/F3 (murine pro-B cells), retroviral transduction, puromycin selection, IL3-independent pool
Briefly: Inhibitor activity on EGFR-dependent cell growth (CellTiter-Glo, 72 h), Ba/F3 EGFR exon 20 SVD Ins. To be noted: read-out: BaF3 SVD IC50. In short, it runs like this: as §1

T3 sequence (P00533 25-1210): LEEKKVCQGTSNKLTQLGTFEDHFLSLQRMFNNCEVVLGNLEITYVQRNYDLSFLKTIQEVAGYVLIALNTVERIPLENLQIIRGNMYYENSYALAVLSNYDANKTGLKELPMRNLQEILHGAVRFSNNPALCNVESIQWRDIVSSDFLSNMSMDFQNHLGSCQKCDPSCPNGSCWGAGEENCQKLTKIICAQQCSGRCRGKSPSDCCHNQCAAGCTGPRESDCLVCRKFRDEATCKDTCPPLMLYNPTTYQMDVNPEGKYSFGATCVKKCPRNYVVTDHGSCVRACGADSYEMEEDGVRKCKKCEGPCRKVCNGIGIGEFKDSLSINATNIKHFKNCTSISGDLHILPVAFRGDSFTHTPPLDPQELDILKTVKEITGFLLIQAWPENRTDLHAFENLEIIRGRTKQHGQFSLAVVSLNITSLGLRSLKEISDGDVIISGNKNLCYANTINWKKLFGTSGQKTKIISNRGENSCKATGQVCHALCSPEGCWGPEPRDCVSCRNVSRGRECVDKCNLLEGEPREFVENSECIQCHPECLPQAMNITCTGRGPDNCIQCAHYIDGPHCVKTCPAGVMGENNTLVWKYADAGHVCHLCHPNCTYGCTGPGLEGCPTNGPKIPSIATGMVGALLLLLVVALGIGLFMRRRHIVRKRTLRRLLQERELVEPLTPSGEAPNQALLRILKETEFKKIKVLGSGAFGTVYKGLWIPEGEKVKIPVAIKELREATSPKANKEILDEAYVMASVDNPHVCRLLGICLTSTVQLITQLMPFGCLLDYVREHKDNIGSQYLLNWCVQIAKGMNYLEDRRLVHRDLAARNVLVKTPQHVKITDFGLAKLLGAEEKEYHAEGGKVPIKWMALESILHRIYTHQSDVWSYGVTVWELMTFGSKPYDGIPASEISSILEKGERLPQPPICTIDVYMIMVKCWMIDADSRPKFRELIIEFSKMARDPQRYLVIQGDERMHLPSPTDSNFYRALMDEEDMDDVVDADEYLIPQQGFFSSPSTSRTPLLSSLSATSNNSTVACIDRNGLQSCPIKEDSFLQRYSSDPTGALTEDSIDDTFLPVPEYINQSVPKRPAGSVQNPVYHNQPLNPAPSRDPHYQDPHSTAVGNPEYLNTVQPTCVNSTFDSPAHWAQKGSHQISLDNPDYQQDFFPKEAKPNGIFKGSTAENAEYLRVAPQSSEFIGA
T4 sequence (P00533 with tags, fused parts or gaps INS770SVD): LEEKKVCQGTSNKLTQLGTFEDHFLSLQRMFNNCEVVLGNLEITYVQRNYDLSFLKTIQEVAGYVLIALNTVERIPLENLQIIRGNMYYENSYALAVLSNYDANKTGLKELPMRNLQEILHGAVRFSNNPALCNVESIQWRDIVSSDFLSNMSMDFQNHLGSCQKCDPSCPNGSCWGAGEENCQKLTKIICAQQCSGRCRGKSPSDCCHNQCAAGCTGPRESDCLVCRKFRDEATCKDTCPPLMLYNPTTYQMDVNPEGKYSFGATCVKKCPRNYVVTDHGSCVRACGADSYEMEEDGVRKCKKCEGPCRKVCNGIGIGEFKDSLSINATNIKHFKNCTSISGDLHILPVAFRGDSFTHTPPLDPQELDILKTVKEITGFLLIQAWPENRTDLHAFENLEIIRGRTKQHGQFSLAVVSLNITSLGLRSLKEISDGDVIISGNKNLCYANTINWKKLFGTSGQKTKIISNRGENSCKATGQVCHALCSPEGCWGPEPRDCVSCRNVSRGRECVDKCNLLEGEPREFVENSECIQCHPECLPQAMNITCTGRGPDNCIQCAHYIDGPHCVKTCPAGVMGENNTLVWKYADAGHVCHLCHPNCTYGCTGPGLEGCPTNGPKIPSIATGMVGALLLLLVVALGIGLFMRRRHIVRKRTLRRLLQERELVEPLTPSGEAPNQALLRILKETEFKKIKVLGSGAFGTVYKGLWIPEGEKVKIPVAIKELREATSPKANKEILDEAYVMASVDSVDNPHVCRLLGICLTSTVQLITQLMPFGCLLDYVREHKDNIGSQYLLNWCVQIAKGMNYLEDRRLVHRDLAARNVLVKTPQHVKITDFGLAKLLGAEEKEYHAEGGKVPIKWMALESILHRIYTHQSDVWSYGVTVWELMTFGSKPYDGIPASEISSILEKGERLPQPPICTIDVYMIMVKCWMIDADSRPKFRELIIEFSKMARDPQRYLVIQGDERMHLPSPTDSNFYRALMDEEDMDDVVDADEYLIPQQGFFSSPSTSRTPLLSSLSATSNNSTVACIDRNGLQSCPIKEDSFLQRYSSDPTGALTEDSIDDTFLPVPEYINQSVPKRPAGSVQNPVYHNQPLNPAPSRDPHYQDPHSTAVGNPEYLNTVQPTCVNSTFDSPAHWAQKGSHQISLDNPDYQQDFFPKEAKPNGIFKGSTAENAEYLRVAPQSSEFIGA

As usually defined, the IC50 is the concentration that gives 50% inhibition. With `COc1ncc2nccc(-c3[nH]c4c(c3Nc3c(F)cccc3F)C(=O)NCC4)c2n1` [Compound 806, 3-[(2,6-difluorophenyl)amino]-2-[2-methoxypyrido[3,2-d]pyrimidin-8-yl]-1H,5H,6H,7H-pyrrolo[3,2-c]pyridin-4-one], the 50% inhibitory concentration (IC50) in assay [1] is 100 to 1000 nM; in assay [2], above 1000 nM; at EGFR WT (Ba/F3 cells), above 1000 nM; in assay [3], above 1000 nM.

In the case of `COc1cc2nccc(-c3[nH]c4c(c3Nc3cccc(F)c3OC)C(=O)NCC4)c2nc1OC` [Compound 807, 2-(6,7-dimethoxy-1,5-naphthyridin-4-yl)-3-[(3-fluoro-2-methoxyphenyl)amino]-1H,5H,6H,7H-pyrrolo[3,2-c]pyridin-4-one], the IC50 (in assay [1]; in assay [2]; at EGFR WT (Ba/F3 cells); in assay [3]) was below 100 nM each time.

Consider `COc1c(F)cccc1Nc1c(-c2ccnc3cc(F)cnc23)[nH]c2c1C(=O)NCC2` [Compound 825, 2-(7-fluoro-1,5-naphthyridin-4-yl)-3-[(3-fluoro-2-methoxyphenyl)amino]-1H,5H,6H,7H-pyrrolo[3,2-c]pyridin-4-one], for which the IC50 in assay [1] was 100 to 1000 nM; in assay [2], 100 to 1000 nM; at EGFR WT (Ba/F3 cells), above 1000 nM; in assay [3], below 100 nM.

On to `COc1c(Cl)cccc1Nc1c(-c2ccnc3cc(F)cnc23)[nH]c2c1C(=O)NCC2` [Compound 826], for which the IC50 in assay [1] was below 100 nM; in assay [2], below 100 nM; on EGFR WT (Ba/F3 cells) it was 100 to 1000 nM; in assay [3] it was below 100 nM.

As for `COc1c(F)cccc1Nc1c(-c2nnc3ccccn23)[nH]c2c1C(=O)NCC2` [compound 239], the IC50 (in assay [1]; in assay [2]; at EGFR WT (Ba/F3 cells); in assay [3]) was above 1000 nM in each case.

In the case of `COc1c(F)cccc1Nc1c(-c2ccncc2)[nH]c2c1C(=O)NCC2` [compound 243], the IC50 in assay [1] was 100 to 1000 nM; in assay [2], 100 to 1000 nM; at EGFR WT (Ba/F3 cells), above 1000 nM; in assay [3], 100 to 1000 nM.

Take `COc1c(F)cccc1Nc1c(-c2ccnc3[nH]ccc23)[nH]c2c1C(=O)NCC2` [compound 252]: the IC50 in assay [1] is 100 to 1000 nM; in assay [2], 100 to 1000 nM; on EGFR WT (Ba/F3 cells), above 1000 nM; in assay [3], 100 to 1000 nM.

For `COc1c(F)cccc1Nc1c(-c2ccnc(SC)n2)[nH]c2c1C(=O)NCC2` [compound 255], the IC50 (in assay [1]; in assay [2]; on EGFR WT (Ba/F3 cells); in assay [3]) was 100 to 1000 nM throughout.

Take `COc1c(F)cccc1Nc1c(-c2ccnc(-c3cnn(C)c3)c2)[nH]c2c1C(=O)NCC2` [compound 259]: the IC50 (in assay [1]; in assay [2]; on EGFR WT (Ba/F3 cells); in assay [3]) was above 1000 nM each time.

Consider `COc1ccc2nccc(-c3[nH]c4c(c3Nc3cccc(Cl)c3OC)C(=O)NCC43CC3)c2n1` [compound 316], for which the IC50 is below 100 nM in assay [1], below 100 nM in assay [2], 100 to 1000 nM on EGFR WT (Ba/F3 cells) and below 100 nM in assay [3].

For `COc1c(Cl)cccc1Nc1c(-c2ccnc3ccc(OC4CC4)nc23)[nH]c2c1C(=O)NCC21CC1` [compound 323], the IC50 in assay [1] is below 100 nM; in assay [2] it was below 100 nM; at EGFR WT (Ba/F3 cells), 100 to 1000 nM; in assay [3] it was below 100 nM.

For `COc1ncc2nccc(-c3[nH]c4c(c3Nc3cccc(F)c3OC)C(=O)NCC43CC3)c2n1` [compound 379], the IC50 is below 100 nM in assay [1], below 100 nM in assay [2], 100 to 1000 nM at EGFR WT (Ba/F3 cells) and below 100 nM in assay [3].

Consider `COc1c(F)cccc1Nc1c(-c2ccnc3cnc(OC4CC4)nc23)[nH]c2c1C(=O)NCC2` [compound 413], for which the half-maximal inhibitory concentration (IC50) (in assay [1]; in assay [2]; on EGFR WT (Ba/F3 cells); in assay [3]) was below 100 nM each time.

On to `COc1c(F)cccc1Nc1c(-c2ccnc3cnc(C(F)(F)F)nc23)[nH]c2c1C(=O)NCC2` [compound 417], for which the IC50 was 100 to 1000 nM in assay [1], 100 to 1000 nM in assay [2], above 1000 nM on EGFR WT (Ba/F3 cells) and 100 to 1000 nM in assay [3].

Take `COc1c(F)cccc1Nc1c(-c2ccncc2F)[nH]c2c1C(=O)NCC2` [compound 418]: the IC50 in assay [1] is 100 to 1000 nM; in assay [2] it was 100 to 1000 nM; on EGFR WT (Ba/F3 cells) it was above 1000 nM; in assay [3] it was 100 to 1000 nM.

With `COc1c(F)cccc1Nc1c(-c2ccnc3cnc(OC4COC4)nc23)[nH]c2c1C(=O)NCC2` [compound 440], the IC50 in assay [1] is below 100 nM; in assay [2] it was below 100 nM; at EGFR WT (Ba/F3 cells), 100 to 1000 nM; in assay [3], below 100 nM.

With `COc1c(Cl)cccc1Nc1c(-c2ccnc(C(F)F)n2)[nH]c2c1C(=O)NCC2` [compound 472, 3-[(3-chloro-2-methoxyphenyl)amino]-2-[2-(difluoromethyl)pyrimidin-4-yl]-1H,5H,6H,7H-pyrrolo[3,2-c]pyridin-4-one], the IC50 in assay [1] was above 1000 nM; in assay [2] it was 100 to 1000 nM; on EGFR WT (Ba/F3 cells), above 1000 nM; in assay [3], 100 to 1000 nM.

For `COc1c(Cl)cccc1Nc1c(-c2ccncc2F)[nH]c2c1C(=O)NC[C@@H]2CCN(C)C` [compound 475, (7S)-3-[(3-chloro-2-methoxyphenyl)amino]-7-[2-(dimethylamino)ethyl]-2-(3-fluoropyridin-4-yl)-1H,5H,6H,7H-pyrrolo[3,2-c]pyridin-4-one], the IC50 (in assay [1]; in assay [2]; at EGFR WT (Ba/F3 cells); in assay [3]) was above 1000 nM throughout.

Consider `COc1c(Cl)cccc1Nc1c(-c2ccnc(C(F)(F)F)n2)[nH]c2c1C(=O)NCC2` [compound 476, 3-[(3-chloro-2-methoxyphenyl)amino]-2-[2-(trifluoromethyl)pyrimidin-4-yl]-1H,5H,6H,7H-pyrrolo[3,2-c]pyridin-4-one], for which the IC50 (in assay [1]; in assay [2]; at EGFR WT (Ba/F3 cells); in assay [3]) was above 1000 nM in each case.

In the case of `COc1nc2c(-c3[nH]c4c(c3Nc3cccc(Cl)c3OC)C(=O)NCC4)ccnc2cc1F` [compound 477, 3-[(3-chloro-2-methoxyphenyl)amino]-2-(7-fluoro-6-methoxy-1,5-naphthyridin-4-yl)-1H,5H,6H,7H-pyrrolo[3,2-c]pyridin-4-one], the 50% inhibitory concentration (IC50) is below 100 nM in assay [1], below 100 nM in assay [2], 100 to 1000 nM on EGFR WT (Ba/F3 cells) and below 100 nM in assay [3].

For `COc1c(Cl)cccc1Nc1c(-c2ccncc2F)[nH]c2c1C(=O)NC[C@H]2CCN1CCOCC1` [compound 484, (7R)-3-[(3-chloro-2-methoxyphenyl)amino]-2-(3-fluoropyridin-4-yl)-7-[2-(morpholin-4-yl)ethyl]-1H,5H,6H,7H-pyrrolo[3,2-c]pyridin-4-one], the IC50 (in assay [1]; in assay [2]; at EGFR WT (Ba/F3 cells); in assay [3]) was above 1000 nM throughout.

As for `COc1c(Cl)cccc1Nc1c(-c2ccncc2F)[nH]c2c1C(=O)NC[C@@H]2CCN1CCOCC1` [compound 485, (7S)-3-[(3-chloro-2-methoxyphenyl)amino]-2-(3-fluoropyridin-4-yl)-7-[2-(morpholin-4-yl)ethyl]-1H,5H,6H,7H-pyrrolo[3,2-c]pyridin-4-one], the IC50 (in assay [1]; in assay [2]; on EGFR WT (Ba/F3 cells); in assay [3]) was above 1000 nM in each case.
